Read-outs that look alike come from different tables or passages of the source.
What was measured:
CDK2/CycE = target: T1, CDK2/CycE (Homo sapiens, UniProt P24941); assay: CDK2/CycE high ATP kinase assay (Method 2b, TR-FRET); format: biochemical; conditions: 2 mM ATP
T1 construct: GST; purchased ProQinase GmbH (Freiburg, Germany); host or cells: insect cells (Sf9)
Procedure: 2b. CDK2/CycE High ATP Kinase Assay:
CDK2/CycE-Inhibitory Activity of Compounds of the Present Invention at 2 mM Adenosine-Tri-Phosphate (ATP) was Quantified Employing the CDK2/CycE TR-FRET (TR-FRET=Time Resolved Fluorescence Energy Transfer) Assay as Described in the Following Paragraphs.
Recombinant fusion proteins of GST and human CDK2 and of GST and human CycE, expressed in insect cells (Sf9) and purified by Glutathion-Sepharose affinity chromatography, were purchase from ProQinase GmbH (Freiburg, Germany). As substrate for the kinase reaction biotinylated peptide biotin-Ttds-YISPLKSPYKISEG (C-terminus in amid form) was used which can be purchased e.g. form the company JERINI peptide technologies (Berlin, Germany).
For the assay 50 nl of a 100 fold concentrated solution of the test compound in DMSO was pipetted into a black low volume 384 well microtiter plate (Greiner Bio-One, Frickenhausen, Germany), 2 yl of a solution of CDK2/CycE in aqueous assay buffer [50 mM Tris/HCl pH 8.0, 10 mM MgCl2, 1.0 mM dithiothreitol, 0.1 mM sodium ortho-vanadate, 0.01% (v/v) Nonidet-P40 (Sigma)] were added and the mixture was incubated for 15 min at 22° C. to allow pre-binding of the test compounds to the enzyme before the start of the kinase reaction. […] The concentration of CDK2/CycE was adjusted depending of the activity of the enzyme lot and was chosen appropriate to have the assay in the linear range, typical concentrations were in the range of 15 ng/ml. The reaction was stopped by the addition of 5 yl of a solution of TR-FRET detection reagents (0.2 μM streptavidine-XL665 [Cisbio Bioassays, Codolet, France] and 1 nM anti-RB(pSer807/pSer811)-antibody from BD Pharmingen [#558389] and 1.2 nM LANCE EU-W1024 labeled anti-mouse IgG antibody [Perkin-Elmer, product no. AD0077, as an alternative a Terbium-cryptate-labeled anti-mouse IgG antibody from Cisbio Bioassays can be used]) in an aqueous EDTA-solution (100 mM EDTA, 0.2% (w/v) bovine serum albumin in 100 mM HEPES/NaOH pH 7.0).
The resulting mixture was incubated 1 h at 22° C. to allow the formation of complex between the phosphorylated biotinylated peptide and the detection reagents. Subsequently the amount of phosphorylated substrate was evaluated by measurement of the resonance energy transfer from the Eu-chelate to the streptavidine-XL. Therefore, the fluorescence emissions at 620 nm and 665 nm after excitation at 350 nm were measured in a TR-FRET reader, e.g. a Rubystar (BMG Labtechnologies, Offenburg, Germany) or a Viewlux (Perkin-Elmer). The ratio of the emissions at 665 nm and at […] was taken as the measure for the amount of phosphorylated substrate. The data were normalised (enzyme reaction without inhibitor=0% inhibition, all other assay components but no enzyme=100% inhibition).

HeLa cells = assay: Proliferation assay HeLa (Method 3); format: cell-based, human; conditions: 4 days, crystal violet, read-out: Inhibition of HeLa cell proliferation IC50
Procedure: (§1) Cultivated tumour cells (HeLa, human cervical tumour cells, ATCC CCL-2; NCI-H460, human non-small cell lung carcinoma cells, ATCC HTB-177; A2780, human ovarian carcinoma cells, ECACC #93112519; DU 145, hormone-independent human prostate carcinoma cells, ATCC HTB-81; HeLa-MaTu-ADR, multidrug-resistant human cervical carcinoma cells, EPO-GmbH Berlin; Caco-2, human colorectal carcinoma cells, ATCC HTB-37; B16F10, mouse melanoma cells, ATCC CRL-6475) were plated at a density of 5,000 cells/well (DU145, HeLa-MaTu-ADR), 3,000 cells/well (NCI-H460, HeLa), 2,500 cells/well (A2780), 1,500 cells/well (Caco-2), or 1,000 cells/well (B16F10) in a 96-well multititer plate in 200 μL of their respective growth medium supplemented 10% fetal calf serum. After 24 hours, the cells of one plate (zero-point plate) were stained with crystal violet (see below), while the medium of the other plates was replaced by fresh culture medium (200 μl), to which the test substances were added in various concentrations (0 μM, as well as in the range of 0.001-10 μM; the final concentration of the solvent dimethyl sulfoxide was 0.5%). The cells were incubated for 4 days in the presence of test substances. Cell proliferation was determined by staining the cells with crystal violet: the cells were fixed by adding 20 μl/measuring point of an 11% glutaric aldehyde solution for 15 minutes at room temperature. After three washing cycles of the fixed cells with water, the plates were dried at room temperature. The cells were stained by adding 100 μl/measuring point of a 0.1% crystal violet solution (pH 3.0). After three washing cycles of the stained cells with water, the plates were dried at room temperature. The dye was dissolved by adding 100 μl/measuring point of a 10% acetic acid solution. The extinction was determined by photometry at a wavelength of 595 nm. The change of cell number, in percent, was calculated by normalization of the measured values to the extinction values of the zero-point plate (=0%) and the extinction of the untreated (0 μm) cells (=100%). The IC50 values (inhibitory concentration at 50% of maximal effect) were determined by means of a 4 parameter fit.

DU145 cells = assay: Proliferation assay DU145 (Method 3); format: cell-based, human; conditions: DU145, 4 days, crystal violet, read-out: Inhibition of DU145 cell proliferation IC50
Procedure: as §1

Caco-2 cells = assay: Proliferation assay Caco-2 (Method 3); format: cell-based, human; conditions: Caco-2, 4 days, crystal violet, read-out: Inhibition of Caco-2 cell proliferation IC50
Procedure: as §1

Row | IC50 (CDK2/CycE) [nM] | IC50 (HeLa cells; Homo sapiens, 96 h) [nM] | IC50 (DU145 cells; Homo sapiens, DU-145, 96 h) [nM] | IC50 (Caco-2 cells; Homo sapiens, Caco-2, 96 h) [nM] | IC50 (HeLa cells) [nM] | IC50 (DU145 cells) [nM] | IC50 (Caco-2 cells) [nM] | Structure (SMILES)
1 | 913 | 31 | 41 | 47 | – | – | – | CS(=N)(=O)Cc1cc(F)cc(Nc2ncc(F)c(-c3ccc(F)c4ccoc34)n2)c1 (single isomer, unassigned) [Example 11, 5-Fluoro-4-(4-fluoro-1-benzofuran-7-yl)-N-{3-fluoro-5-[(S-methylsulfonimidoyl)-methyl]-phenyl}-pyrimidin-2-amine]
2 | 1250 | – | – | – | 30 | 62 | 57 | CS(=N)(=O)Cc1cc(F)cc(Nc2ncc(F)c(-c3ccc(F)c4ccoc34)n2)c1 (single isomer, unassigned) [Example 12, 5-Fluoro-4-(4-fluoro-1-benzofuran-7-yl)-N-{3-fluoro-5-[(S-methylsulfonimidoyl)-methyl]-phenyl}-pyrimidin-2-amine]
3 | 846 | 96 | 66 | 61 | – | – | – | Cc1cc(CS(C)(=O)=NC#N)cc(Nc2ncc(F)c(-c3ccc(F)c4ccoc34)n2)c1 (single isomer, unassigned) [Example 14, [(3-{[5-Fluoro-4-(4-fluoro-1-benzofuran-7-yl)pyrimidin-2-yl]amino}-5-methylbenzyl)-(methyl)oxido-λ^6-sulfanylidene]cyanamide]
4 | 835 | – | – | – | 107 | 101 | 68 | Cc1cc(CS(C)(=O)=NC#N)cc(Nc2ncc(F)c(-c3ccc(F)c4ccoc34)n2)c1 (single isomer, unassigned) [Example 15, [(3-{[5-Fluoro-4-(4-fluoro-1-benzofuran-7-yl)pyrimidin-2-yl]amino}-5-methylbenzyl)-(methyl)oxido-λ^6-sulfanylidene]cyanamide]
